# PubChem BioAssay AID1421 (Emory University Molecular Libraries Screening Center, 2008)
# Values joined by “and” are separate entries in the source; they are usually repeats but may differ in a detail not shown here. Equal entries are not always repeated. Active and inactive are the calls of the source. No rule for the calls is given here.
# Biological target: Prostaglandin E2 receptor EP2 subtype (Homo sapiens) (UniProt P43116)
# Assay: EP2 receptor modulators, dose response, cell-based, human EP2, PGE2 EC50 shift (AID 1421)
# Settings: EP2-expressing cells, PGE2 EC50 shift by compound
# Chain of Prostaglandin E2 receptor EP2 subtype (Homo sapiens) (P43116 whole entry, looked up): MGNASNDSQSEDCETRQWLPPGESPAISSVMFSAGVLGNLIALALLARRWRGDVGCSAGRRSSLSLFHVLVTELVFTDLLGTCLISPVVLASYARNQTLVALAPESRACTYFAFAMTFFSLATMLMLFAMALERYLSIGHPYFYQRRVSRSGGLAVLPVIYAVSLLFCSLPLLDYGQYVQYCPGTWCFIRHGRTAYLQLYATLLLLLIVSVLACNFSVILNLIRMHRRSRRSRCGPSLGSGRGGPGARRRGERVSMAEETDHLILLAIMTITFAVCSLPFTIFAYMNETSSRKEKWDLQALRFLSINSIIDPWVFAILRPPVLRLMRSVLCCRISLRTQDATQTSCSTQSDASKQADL
row,SMILES,outcome
1,Cn1cccc1/C=C1\CC(C(C)(C)C)C/C(=C\c2cccn2C)C1=O (stereo not drawn),active
2,CCOC(=O)C1=C(CN2CCc3ccccc32)NC(=O)NC1c1ccc(Cl)cc1 (stereo not drawn),active
3,COc1ccccc1NC(=O)c1c(C)oc2c1CCCC2,active
4,O=C(CSc1nnc(-c2ccc(Cl)cc2)n1Cc1ccco1)c1cccs1,active
5,COc1ccc2c(c1)c(=O)c(Br)c(C)n2Cc1ccccc1,active
6,Cc1cc(C)cc(C(=N)c2ccccc2Cc2cccc3ccccc23)c1,active
7,O=c1c2ccccc2nc2n1C1(CCCCC1)Cc1ccccc1-2,active

# Same assay, conditions: EP2-expressing cells, PGE2 EC50 shift by compound; measured here: PGE2 EC50 at 6.7 uM compound
row,SMILES,PGE2 EC50 with compound
1,CCOc1ccc(OCC)c(NC(=O)CN2CCN(c3cc(C)ccc3C)CC2)c1,0.8 nM
2,Cc1c(F)cccc1NC(=O)CCCCCC1NC(=O)NC1C (stereo not drawn),1.84 nM
3,COc1ccc(C(=O)Nc2cc(C)nn2-c2nc3ccccc3[nH]2)c(OC)c1,0.91 nM
4,CCOC(=O)c1c(N)nn(C(=O)C(C)(C)C)c1-c1ccccc1,0.96 nM
5,O=C(CSc1nc2cc(Cl)ccc2s1)N1CCCc2ccccc21,1.09 nM
6,COc1ccc(C)c(Cn2c(-c3nonc3N)nc3ccccc32)c1,0.86 nM
7,COc1cccc(C2=NN(C(=O)c3cccs3)C(O)(C(F)(F)F)C2)c1 (stereo not drawn),1.44 nM
8,CCCCOc1cc(C)nc(NCc2ccccc2)n1,1.47 nM
9,COc1ccc(C2=Nn3c(nnc3C3CCCCC3)SC2)cc1OC,1.58 nM
10,CCOC(=O)C1=C(N)N2C(=O)C(C)SC2=C(C(=O)OC)C1c1ccccc1OC (stereo not drawn),0.51 nM
11,Cc1sc(NC(=O)c2cccs2)c(C(=O)OC(C)C)c1C,2.6 nM
12,Cc1sc2ncnc(N(C)Cc3cccs3)c2c1C,2.57 nM
13,COc1ccc2c(C)cc(SCC(=O)Nc3ncc(Cl)cc3Cl)nc2c1,1.52 nM
14,CCOC(=O)C1=C(C)OC(N)=C(C#N)C1c1cc(C)sc1C (stereo not drawn),1.3 nM
15,CCOC(=O)c1c(C2CC2)csc1NC(=O)CSCc1c(C)noc1C,1.25 nM
16,CC(C)n1c2ccccc2c2nc3ccccc3nc21,2.59 nM
17,Cn1cccc1/C=C1\CC(C(C)(C)C)C/C(=C\c2cccn2C)C1=O (stereo not drawn),1.44 nM
18,CCOC(=O)C1=C(CN2CCc3ccccc32)NC(=O)NC1c1ccc(Cl)cc1 (stereo not drawn),1.21 nM
19,C=CCn1c(SCc2c(C)noc2C)nc2ccccc2c1=O,1.49 nM
20,CC(Cc1ccccc1)NC(=O)C1(c2ccccc2)CCOCC1 (stereo not drawn),1.2 nM
21,COc1ccccc1NC(=O)c1c(C)oc2c1CCCC2,1.19 nM
22,C[C@H](N)[C@H](O)c1ccc(O)c(O)c1,1.32 nM

row,SMILES,PGE2 EC50 with compound
1,COC(=O)C(C)Sc1ncnc2c1nnn2-c1ccc(F)cc1 (stereo not drawn),1.11 nM
2,Cc1ccn2c(Nc3ccccc3C)c(-c3ccccn3)nc2c1,0.73 nM
3,COC(=O)NC1(C(F)(F)F)C(=O)NC(C)=C1C(=O)OC (stereo not drawn),1.02 nM
4,S=c1[nH]nc(-c2ccccc2)n1/N=C/c1ccc(-c2ccccc2Cl)o1,2.43 nM
5,C=CCSc1nc(N(CC)CC)c2sccc2n1,0.98 nM
6,Cc1cccc(/C=N/Nc2cc(N3CCOCC3)nc(N3CCOCC3)n2)c1,1.08 nM
7,N#CCCSc1ncnc2c1oc1ccccc12,1.52 nM
8,CCOC(=O)c1cc2sc(C)cc2n1C(C)C(=O)OCC (stereo not drawn),0.84 nM
9,COc1c(Cl)cc(Cl)cc1C(=O)n1nc(C)cc1C,1.14 nM
10,CC(=O)O[C@@H]1c2c(ccc3ccc(=O)oc23)OC(C)(C)[C@@H]1OC(=O)CC(C)C,0.92 nM
11,Cc1cc(NC(=O)CN2CCCC(C)C2)n(-c2nc3ccccc3s2)n1 (stereo not drawn),0.75 nM
12,S=c1[nH]nc(Cc2ccccc2)n1Cc1ccco1,2.65 nM
13,COc1ccc(Nc2nc(-c3cc4cccc(OC)c4oc3=O)cs2)cc1,1.29 nM
14,C/C(CCc1oc2ccccc2c1-c1ccc(C)o1)=N/O,0.95 nM
15,Nc1c(C(=O)NCc2ccco2)c2nc3ccccc3nc2n1CCc1ccccc1,1.78 nM
16,COc1cc(C)c(NC(c2ccccc2)c2ccccc2)cc1OC,1.5 nM
17,C=CCn1c(=O)c(C(=O)NCCc2ccccc2)c(O)c2ccccc21,2.43 nM
18,Fc1ccc(Sc2nc(-c3ccccc3)nnc2C(F)(F)F)cc1,0.94 nM
19,Cc1cccc(OCc2n[nH]c(=S)n2Cc2ccccc2)c1,1.31 nM
20,C=CCN1C(=O)/C(=C/c2ccc(O)c(OC)c2)S/C1=N/c1nccs1,1.27 nM
21,CC12CCCC(O)(C1)C1CC(C)(C)C1CC2 (stereo not drawn),1.55 nM
22,O=C(Nc1ccccc1Br)c1ccccc1-c1ccccc1,2.5 nM

row,SMILES,PGE2 EC50 with compound
1,O=C(O)/C=C/c1ccccc1Oc1ccc(Cl)cc1Cl,1.21 nM
2,O=C(CSc1nnc(-c2ccc(Cl)cc2)n1Cc1ccco1)c1cccs1,2.65 nM
3,O=C(c1cc(-c2ccccn2)nc2ccc(Br)cc12)N1CCc2ccccc2C1,1.06 nM
4,CN(/N=C/C=C/c1ccccc1)C1=NS(=O)(=O)c2ccccc21,0.68 nM
5,CC(C)c1nc(Cl)c(C#N)c2c1CSC(C)(C)C2,0.85 nM
6,CCNc1nc(NCC)nc(SCCOc2ccc(C)cc2)n1,0.7 nM
7,O=C(c1ccco1)N(Cc1cccc([N+](=O)[O-])c1)c1ccc(Br)cc1,1.01 nM
8,Cc1nc2ccccc2c(-c2ccccc2)c1C(=O)c1ccccc1,2.55 nM
9,Cn1c(CNc2ccc(F)cc2)nnc1SCC(=O)NNC(=O)Cc1ccccc1,1.63 nM
10,Cn1c(=O)c2c(ncn2CCSS(=O)(=O)O)n(C)c1=O,0.97 nM
11,COC(=O)c1ccc(CSc2ncnc3c2oc2ccccc23)o1,2.45 nM
12,CSc1nnc(-c2ccc(F)cc2)o1,1.71 nM
13,O=c1c2ccccc2nc(/C=C/c2ccccc2)n1CCc1ccccc1,0.92 nM
14,CCc1ccc(C2=Nn3c(nnc3-c3cccs3)SC2)cc1,1.43 nM
15,COc1ccc(-c2c(C(C)=O)c(C)nc3sc4c(c23)NC(c2ccccc2)NC4=O)cc1 (stereo not drawn),1.87 nM
16,Cc1ccccc1-n1c(SCC(=O)N2CCCC2)nnc1-c1ccccn1,1.28 nM
17,O=C(Nc1ccccc1N1CCCCC1)c1ccc(F)cc1,1.01 nM
18,Cc1cccc(-n2c(CCc3ccccc3)nnc2SCC(=O)c2ccccc2)c1,1.16 nM
19,Cc1ccccc1N=C1SCC(=O)N1Cc1ccccc1,1.2 nM
20,Cc1cccc(NC(=O)CSc2ncnc3c2oc2ccccc23)c1,2.85 nM
21,CC(C)(C)C1CCc2onc(C(=O)Nc3cccnc3)c2C1 (stereo not drawn),1.31 nM
22,CC1CCN(C(C)C(=O)Nc2ccccc2-c2ccccc2)CC1 (stereo not drawn),1.27 nM

row,SMILES,PGE2 EC50 with compound
1,O=C(Nc1ccccc1N1CCCCC1)c1ccc(Cl)c([N+](=O)[O-])c1,1.23 nM
2,Cc1ccc(Cn2ccc(=O)c(OCc3c(Cl)cccc3Cl)c2C)cc1,1.18 nM
3,COC(=O)c1c(NC(=O)c2ccc(Br)s2)sc2c1CCC2,1.14 nM
4,CCc1oc2ccccc2c1C(=O)c1cc(Br)c(O)c(Br)c1,1.02 nM and 0.68 nM
5,COc1ccc(C(=O)c2cnc3ccccc3c2-c2ccccc2)cc1,0.59 nM
6,O=C(c1ccco1)N(CC1CCCO1)c1nc(-c2ccccc2)cs1 (stereo not drawn),0.61 nM
7,Cc1cc(C)nc(SCc2nnc(SCC#N)n2-c2cccc(Cl)c2)n1,2.76 nM
8,Cc1cccc(OCC(=O)Nc2ccccc2-c2ccccc2)c1,0.63 nM
9,COc1ccc2c(c1)c(=O)c(Br)c(C)n2Cc1ccccc1,0.83 nM
10,Cc1cc(C)cc(C(=N)c2ccccc2Cc2cccc3ccccc23)c1,1.22 nM
11,O=c1c2ccccc2n(Cc2ccc(Cl)cc2)c(=O)n1Cc1ccco1,0.82 nM
12,Cc1ccc2nc(-c3ccccn3)c(Nc3ccccc3C)n2c1,0.79 nM
13,C=CCn1c(=O)c2c3c(sc2n2c(Nc4ccc(OC)cc4)nnc12)CCCC3,0.77 nM
14,COC(=O)c1sccc1NC(=O)c1cc2c(s1)CCCC2,1.01 nM
15,CCOC(=O)c1c(NC(=O)c2ccc(N3C(=O)[C@@H]4[C@H](C3=O)[C@H]3C=C[C@@H]4C3)cc2)sc2c1CC(C)CC2 (stereo partly drawn),1.22 nM
16,CCCC(=O)N1CCCC(c2nc(-c3cccs3)no2)C1 (stereo not drawn),1.2 nM
17,Cc1ccc(S(=O)(=O)Nc2ccc(Cl)cc2C(=O)c2ccc(F)cc2)cc1,0.97 nM
18,O=S(=O)(c1cccc(C(F)(F)F)c1)N1c2ccccc2-n2cccc2[C@H]1c1cccnc1,1.09 nM
19,Cc1ccccc1Cn1c(Cc2ccccc2)nc2ccccc21,2.76 nM
20,CCOC(=O)c1sc2nccc(N(C)C)c2c1N=CNOCc1ccccc1,1.25 nM
21,N#Cc1sc2nc(C3CC3)cc(-c3ccc(Cl)cc3)c2c1N,0.81 nM
22,COCCNC(=O)C(c1ccc(F)cc1)N(CC1CCCO1)C(=O)CCC(=O)Nc1ccccn1 (stereo not drawn),2.09 nM

row,SMILES,PGE2 EC50 with compound
1,Cc1ccc(-c2cc3ccccc3nc2N2CCOCC2)cc1,1.45 nM
2,CC(=O)N(c1cccc(Br)c1)C1C=CS(=O)(=O)C1 (stereo not drawn),0.98 nM
3,CC(=O)N1N=C2/C(=C/c3ccccc3)CCCC2C1c1ccccc1 (stereo not drawn),1.25 nM
4,COc1ccc(-c2cc(-c3n[nH]c(=S)n3-c3cccc4ccccc34)[nH]n2)cc1,1.74 nM
5,O=c1c2c(nc3n1CCCCC3)-c1ccccc1CC21CCCCC1,1.25 nM
6,Cc1ccc(C)n1-c1ccc(N(C)C)cc1,0.75 nM
7,O=C(/C(=C/O)N=Nc1ccccc1Cl)c1ccccc1,2.68 nM
8,CC(C)N(CCNC(=O)c1oc(=O)c2ccccc2c1-c1ccccc1)Cc1ccco1,1.6 nM
9,O=C(c1cccs1)c1cn(Cc2ccccc2Cl)c2ccccc12,2.63 nM
10,CC1Cc2ccccc2N1C(=O)CSc1nnc(Cc2ccccc2)n1CCc1ccccc1 (stereo not drawn),1.14 nM
11,CC1CCCCN1C(=O)/C(=C\c1ccccc1)c1ccccc1 (stereo not drawn),2.61 nM
12,c1ccc(Nc2nc(N3CCNCC3)nc(N3CCOCC3)n2)cc1,1.46 nM
13,O=c1cc2c(nn1Cc1c(Cl)cccc1Cl)-c1ccccc1CC2,0.79 nM
14,c1ccc(-c2nn3c(-c4ccccc4)nnc3s2)cc1,0.84 nM
15,O=c1c2ccccc2nc2n1C1(CCCCC1)Cc1ccccc1-2,0.95 nM
16,COC(=O)c1c(NC(=O)c2cccs2)sc2c1CCC(C)C2 (stereo not drawn),0.96 nM
17,COc1ccc(OC)c(C(=O)CSc2nnc(Cc3cccs3)n2CCc2ccccc2)c1,1.33 nM
18,Cc1cc(C)c(S(=O)(=O)c2ccccc2)c(OC(=O)c2cc(F)c(F)cc2Cl)n1,0.91 nM
